Reference: patent US11510964B2, “Macrocyclic peptides to decrease c-Myc protein levels and reduce cancer cell growth” (University of Kansas, priority 2017, dated 2022)
Non-standard residues stand in square brackets, D forms with d. Residues, ends and D or L forms follow the SMILES beside them.

System: PC-3 cells xenograft tumors
Experiment: Mouse xenograft model, tumor growth inhibition
Type: in vivo
Conditions: PC-3 xenograft in nude mice, 30 mg/kg intraperitoneally three times per week
Procedure: An in-vivo study was performed to determine tumor growth inhibition by [D-Trp]CJ-15,208 in a mouse xenograft model. PC-3 cells were injected subcutaneously in both rear flanks of nude mice. Once tumors were established, mice were treated intraperitoneally three times per week with either vehicle (50% DMSO, 45% PEG 400, and 5% polyoxyethylene (20) sorbitan monooleate (Tween 80); 3 mice, 6 tumors) or [D-Trp]CJ-15,208 (30 mg/kg in vehicle; 2 mice, 3 tumors). Tumor volume was measured using calipers.

Compound: O=C1N[C@H](Cc2c[nH]c3ccccc23)C(=O)N[C@@H](Cc2ccccc2)C(=O)N2CCC[C@@H]2C(=O)N[C@H]1Cc1ccccc1 [[D-Trp]CJ-15,208, cyclo[Phe-D-Pro-Phe-D-Trp]] (cyclo(F[dP]F[dW]))
- tumor growth compared to vehicle: decrease in tumor growth
